Measurements published in patent US12213960B2, “Method of preventing or improving UV-induced skin damage using hydroangenol as active ingredient” (COSMAXBIO CO., LTD., priority 2017, dated 2025).

What was measured:
Assay type in all cases: cell-based, human
[1] = tested on: procollagen type 1 secretion in dermal Hs68 fibroblasts; test: Analysis of procollagen type-1 content (PIP EIA)
Procedure: Samples obtained in Examples 1 or 2 were measured in regards to the effect of increasing procollagen type 1 in dermal Hs68 fibroblasts. In order to evaluate the effect of each sample in increasing secretion of procollagen type 1, the cells were seeded into a 24-well microplate at a density of 1.0×10^5 cells/well and stabilized for 24 hours. Next, the culture medium was exchanged to a new one supplemented with the sample, and the cells were incubated for 24 hours. For UV-B irradiation, the culture medium was removed, washed with PBS, and exposed to UV-B radiation at 15 mJ/cm^2. After an incubation of 48 hours in a culture medium supplemented with the sample, the resultant supernatant was measured in regards to the degree of secretion of procollagen type 1 by using a Procollagen type 1 C-peptide (PIP) EIA kit (Mk101, Takara, Japan).

HaCaT keratinocytes = test: MTT assay of cell viability/proliferation after UV-B damage, epidermal cells
Procedure: (§1) Samples obtained in Examples 1 and 2 were measured in regards to the effect in recovering the skin damaged from UV-B exposure. In this experiment, HaCaT keratinocytes and HS68 fibroblasts were used as epidermal and dermal cells, respectively. In order to evaluate the possible efficacy of each sample in preventing or improving the UV-induced damage of skin cells, the cells were seeded into a 96-well microplate at a density of 1.0×10^4 cells/well and stabilized for 24 hours. Next, the culture medium was exchanged to a new one supplemented with the sample, and the cells were incubated for 24 hours. For UV-B irradiation, the culture medium was removed, washed with PBS, and exposed to UV-B radiation at 15 mJ/cm^2. After an incubation of 24 hours in a culture medium supplemented with the sample, the cells were subjected to an MTT assay to measure cell viability. The MTT assay measures the reduction of a tetrazolium component (MTT) into a formazan product by the mitochondria of viable cells. More specifically, 50 μl of a 5 mg/ml MTT solution was added to the cells, and after an incubation of 4 hours, the culture solution was completely removed and cells were dissolved in DMSO. The absorbance of the DMSO solution in the microplate was quantified by spectrophotometry at 540 nm.

[2] = tested on: hyaluronic acid secretion in dermal Hs68 fibroblasts; test: Analysis of hyaluronic acid content (ELISA), dermal cells
Procedure: (§2) Samples obtained in Examples 1 and 2 were measured in regards to the effect of increasing hyaluronic acid in epidermal HaCaT keratinocytes and dermal Hs68 fibroblasts. In order to evaluate the effect of each sample in increasing hyaluronic acid, the cells were seeded into a 24-well microplate at a density of 1.0×10^5 cells/well and stabilized for 24 hours. Next, the culture medium was exchanged to a new one supplemented with the sample, and the cells were incubated for 24 hours. For UV-B irradiation, the culture medium was removed, washed with PBS, and exposed to UV-B radiation at 15 mJ/cm^2. After an incubation of 24 hours in a culture medium supplemented with the sample, the resultant supernatant was measured in regards to the degree of secretion of hyaluronic acid by using a TECOR Hyaluronic Acid PLUS ELISA kit (TE 1018-2, TECO Medical Group, US).

HS68 fibroblasts = test: MTT assay of cell viability/proliferation after UV-B damage, dermal cells
Procedure: as §1

[3] = tested on: hyaluronic acid secretion in epidermal HaCaT keratinocytes; test: Analysis of hyaluronic acid content (ELISA), epidermal cells
Procedure: as §2

[4] = tested on: MMP-1 secretion in dermal Hs68 fibroblasts; test: Quantitative analysis of MMP-1 secretion (ELISA), dermal cells
Procedure: (§3) Samples obtained in Examples 1 and 2 were measured in regards to the inhibitory effect against the secretion of MMP-1 in epidermal HaCat keratinocytes and dermal Hs68 fibroblasts. In order to evaluate the effect of each sample in reducing MMP-1, the cells were seeded into a 24-well microplate at a density of 1.0×10^5 cells/well and stabilized for 24 hours. Next, the culture medium was exchanged to a new one supplemented with the sample, and the cells were incubated for 24 hours. For UV-B irradiation, the culture medium was removed, washed with PBS, and exposed to UV-B radiation at 15 mJ/cm^2. After an incubation of 48 hours in a culture medium supplemented with the sample, the resultant supernatant was measured in regards to the degree of secretion of MMP-1 by using an MMP-1 Human ELISA kit (ab100603, abcam, US).

[5] = tested on: MMP-1 secretion in epidermal HaCat keratinocytes; test: Quantitative analysis of MMP-1 secretion (ELISA), epidermal cells; details: epidermal cells damaged by UV-B radiation of 15 mJ/cm2
Procedure: as §3

[6] = 1 μM hydrangenol, dermal cells, UV-B 15 mJ/cm2
[7] = dermal cells damaged by UV-B radiation of 15 mJ/cm2
[8] = 1 μM hydrangenol, epidermal cells, UV-B 15 mJ/cm2
[9] = epidermal cells damaged by UV-B radiation of 15 mJ/cm2

O=C1OC(c2ccc(O)cc2)Cc2cccc(O)c21 (stereo not drawn) [hydrangenol, 8-hydroxy-3-(4-hydroxyphenyl)-3,4-dihydroisochromen-1-one]
procollagen production effect compared with 10 μM EGCG [1, 6]: equivalent to 10 μM EGCG
production of procollagen [1, 7]: increased the production of procollagen
cell proliferation effect compared with 10 μM EGCG (HaCaT keratinocytes; [8]): equivalent to 10 μM EGCG
cell proliferation (HaCaT keratinocytes; [9]): effective in promoting cell proliferation
cytotoxicity (HaCaT keratinocytes; [9]): non-cytotoxic
effect in producing hyaluronic acid [2, 6]: excellent effect in producing hyaluronic acid
production of hyaluronic acid [2, 7]: increased the production of hyaluronic acid
cell proliferation effect compared with 10 μM EGCG (HS68 fibroblasts; [6]): equivalent to 10 μM EGCG
cell proliferation (HS68 fibroblasts; [7]): effective in promoting cell proliferation
cytotoxicity (HS68 fibroblasts; [7]): non-cytotoxic
effect in producing hyaluronic acid [3, 8]: excellent effect in producing hyaluronic acid
production of hyaluronic acid [3, 9]: increased the production of hyaluronic acid
production of MMP-1 [4, 7]: inhibited the production of MMP-1 in a concentration-dependent manner
inhibitory effect against the production of MMP-1 compared with EGCG ([4]; dermal cells, same concentration as EGCG): far superior to the EGCG
production of MMP-1 [5]: inhibited the production of MMP-1 in a concentration-dependent manner
